Data as given in patent US20250325485A1, “STABLE COMPOSITIONS OF FOXY-5 HEXAPEPTIDE WITH HIGH SOLUBILITY” (WNTRESEARCH AB, priority 2021, published 2025).
In brackets after ≈: the same amount, converted by molar mass. Like-named read-outs stand apart in the source and are kept apart here. Peptide text beside a SMILES is read from it. * marks the point of attachment. For = O=C*

Legend:
[1] = Stability study at 40° C. for two and four weeks (HPLC purity, appearance); type: physicochemical; settings: closed containers
Protocol: A stability study of the compositions according to the first aspect (and the previously prepared trisodium salt) at 40° C. for two and four weeks was performed. Some general trends were found. […] The purity of the tri-salts varied more than the purity of the di-salts (HPLC purity 78-95% at 4 weeks for the tri-salts vs. 87-96% at 4 weeks for the di-salts). Furthermore, as appears from FIG. 6, the absolute purity of the compositions comprising amino acids was generally higher after 4 weeks at 40° C. when compared with compositions comprising other salt formers (value at 4 weeks: ˜90% vs. ˜85% for tri-salts and ˜95% vs. ˜90% for di-salts).
The stability test data for all formed compositions and the starting material itself (Foxy-5 free acid) were measured at 0, 2 and 4 weeks storage @40° C. and included in FIG. 10.
The following parameters for the substance-specific UPLC method were employed for the purity measurements of the stability samples: […]

[2] = pKa by potentiometric titration (Sirius T3); type: physicochemical; settings: ISA water, 25° C., read-out: pKa [measured]
Protocol: 2.0.0.0 software. An automated aqueous titration method was used with initial values of 1.0 mg of solid API dissolved in 1.5 mL of ISA water and three sequential titrations on the same sample. In all three titrations, the sample solution was adjusted with 0.5 M KOH to a starting pH of 12 and slowly titrated with 0.5 M HCl to a final pH of 2.
Each titration curve was fit using the SiriusT3Refine Vers. 2.0.0.0 software, and the corresponding pKa values were calculated. […]

[3] = Solubility / lyophilization concentration of Foxy-5 drug substance (background statements); type: physicochemical; settings: for solubility: water
Source text: The current manufacturing process of Foxy-5 applies a product concentration for the final lyophilization of only 3 g/L due to the limited solubility of the salt free drug substance (DS) in water. This presents a bottleneck which severely limits the production throughput for the commercial manufacture of Foxy-5.
While this achievement is impressive, it nonetheless remains problematic to produce Foxy-5 on commercial scale when the final step requires such a high dilution.
Consequently, an increase of batch size by other solubilizing techniques than solvent polarity adjustments was proposed.

[4] = High pH treatment of aqueous Foxy-5 solution tracked by HPLC; type: physicochemical; settings: after 2 hours at pH=9
Protocol: After stirring of the Foxy-5 solution for 2 hours at pH 9 (see FIG. 4), the aspartimide peak in the HPLC chromatogram completely disappeared (<LOD). It is known that ring opening of aspartimides occurs at high pH, leading to the formation of either the parent compound and the […] and the D-Asp derivatives. However, significant dimer formation was observed (2.5% after 2 hours at pH=9). The identification of the dimer in the chromatogram was confirmed by co-elution with separately synthesized reference material.

[5] = cited from earlier work

Compound: CSCC[C@H](NC=O)C(=O)N[C@@H](CC(=O)O)C(=O)NCC(=O)N[C@@H](CS)C(=O)N[C@@H](CCC(=O)O)C(=O)N[C@@H](CC(C)C)C(=O)O [DEA-P1] (For-MDGCEL-OH)
- appearance after storage ([1]; 2 and 4 weeks at 40° C.): glassy appearance

Compound: CSCC[C@H](NC=O)C(=O)N[C@@H](CC(=O)O)C(=O)NCC(=O)N[C@@H](CS)C(=O)N[C@@H](CCC(=O)O)C(=O)N[C@@H](CC(C)C)C(=O)O [Foxy-5, For-Met-Asp-Gly-Cys-Glu-Leu-OH] (For-MDGCEL-OH)
- pKa ([2]; ASP carboxylic (acidic)): 3.98
- pKa ([2]; CYS thiol (acidic)): 9.01
- pKa ([2]; GLU carboxylic (acidic)): 4.79
- pKa ([2]; terminal carboxylic (acidic)): 3.39
- DS concentration applicable in alternative lyophilization process ([3]; aqueous 30% acetonitrile solution as solvent): up to 7 g/L
- aqueous solubility ([3]; free Foxy-5 hexapeptide, for comparison, listed as free Foxy-5 peptide): 3000 µg/mL (≈ 4.32 mM)
- solubility ([3]; free Foxy-5 hexapeptide, for comparison, read-out: aqueous solubility): ~3000 µg/mL (≈ 4.32 mM)
- solubility ([3]; read-out: product concentration for the final lyophilization, limited by solubility of salt free drug substance in water): 3000 µg/mL
- dimer formation [4]: 2.5%

Compound: CSCC[C@H](NC=O)C(=O)N[C@@H](CC(=O)O)C(=O)NCC(=O)N[C@@H](CS)C(=O)N[C@@H](CCC(=O)O)C(=O)N[C@@H](CC(C)C)C(=O)O [NMG-P6] (For-MDGCEL-OH)
- appearance after storage ([1]; 2 weeks at 40° C.): sticky, glassy appearance

Compound: NC(CO)(CO)CO [tromethamine]
- pKa of the salt-forming base [5]: 8.0
